From ChEMBL document CHEMBL4725219, “Identification and in silico prediction of metabolites of tebufenozide derivatives by major human cytochrome P450 isoforms” (Bioorg Med Chem, 2020)

Columns and labels:
[1] = Drug metabolism in recombinant Saccharomyces cerevisiae AH22 cells expressing human CYP3A4/CYP2C9 assessed as CYP-mediated hydroxylation at CH3-isopropyl group of B ring by measuring retention time of the metabolite at 100 uM incubated for 24 hrs by HPLC analysis; format: ADME
[2] = Drug metabolism in recombinant Saccharomyces cerevisiae AH22 cells expressing human CYP3A4/CYP2C9 assessed as CYP-mediated hydroxylation at CH-isopropyl group of B-ring by measuring retention time of the metabolite at 100 uM incubated for 24 hrs by HPLC analysis; format: ADME
[3] = Drug metabolism in recombinant Saccharomyces cerevisiae AH22 cells expressing human CYP3A4/CYP2C9 assessed as CYP-mediated hydroxylation at methyl group of A-ring by measuring retention time of the metabolite at 100 uM incubated for 24 hrs by HPLC analysis; format: ADME
[4] = biological target: T1, Cytochrome P450 1A2 (Homo sapiens, UniProt P05177); assay: Drug metabolism in microsomes containing baculovirus expressing human CYP1A2 assessed as CYP1A2-mediated hydroxylation by LC/MS/MS analysis; format: ADME, Microsome
T1 sequence (P05177 whole entry): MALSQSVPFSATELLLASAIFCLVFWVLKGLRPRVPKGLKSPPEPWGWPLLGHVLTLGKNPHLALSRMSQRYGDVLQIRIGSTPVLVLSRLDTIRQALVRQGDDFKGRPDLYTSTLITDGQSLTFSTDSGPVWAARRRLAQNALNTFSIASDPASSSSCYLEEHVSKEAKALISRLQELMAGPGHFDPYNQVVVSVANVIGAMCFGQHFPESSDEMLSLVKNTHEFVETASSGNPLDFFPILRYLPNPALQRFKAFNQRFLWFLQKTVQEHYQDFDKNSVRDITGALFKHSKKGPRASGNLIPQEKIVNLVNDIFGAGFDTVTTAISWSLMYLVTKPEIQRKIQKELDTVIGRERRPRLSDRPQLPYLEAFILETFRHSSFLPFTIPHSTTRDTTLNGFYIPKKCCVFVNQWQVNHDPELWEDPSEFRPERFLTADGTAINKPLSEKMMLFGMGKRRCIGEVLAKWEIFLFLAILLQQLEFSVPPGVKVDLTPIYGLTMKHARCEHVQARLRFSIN

[5] = biological target: Cytochrome P450 2D6 (Homo sapiens, UniProt P10635); assay: Drug metabolism in microsomes containing baculovirus expressing human CYP2D6 assessed as CYP2D6-mediated hydroxylation at methyl group of A-ring by LC/MS/MS analysis relative to control; format: ADME, Microsome
Cytochrome P450 2D6, sequence (P10635 whole entry): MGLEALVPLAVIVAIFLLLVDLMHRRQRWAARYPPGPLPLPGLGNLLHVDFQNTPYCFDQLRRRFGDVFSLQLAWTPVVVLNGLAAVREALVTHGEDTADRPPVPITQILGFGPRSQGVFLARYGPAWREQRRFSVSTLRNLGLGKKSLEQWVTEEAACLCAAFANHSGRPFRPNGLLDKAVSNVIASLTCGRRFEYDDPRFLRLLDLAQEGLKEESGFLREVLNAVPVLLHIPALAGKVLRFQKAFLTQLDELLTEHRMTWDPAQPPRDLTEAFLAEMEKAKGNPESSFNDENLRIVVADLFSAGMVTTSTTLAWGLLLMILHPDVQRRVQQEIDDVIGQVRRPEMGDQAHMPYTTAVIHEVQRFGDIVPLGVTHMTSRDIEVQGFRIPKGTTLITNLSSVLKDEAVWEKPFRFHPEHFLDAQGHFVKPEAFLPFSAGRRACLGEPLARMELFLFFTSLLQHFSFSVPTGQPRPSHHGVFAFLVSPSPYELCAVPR

[6] = biological target: Cytochrome P450 2C9 (Homo sapiens, UniProt P11712); assay: Drug metabolism in microsomes containing baculovirus expressing human CYP2C9 assessed as CYP2C9-mediated hydroxylation at methyl group of A-ring by LC/MS/MS analysis relative to control; format: ADME, Microsome
Cytochrome P450 2C9, sequence (P11712 whole entry): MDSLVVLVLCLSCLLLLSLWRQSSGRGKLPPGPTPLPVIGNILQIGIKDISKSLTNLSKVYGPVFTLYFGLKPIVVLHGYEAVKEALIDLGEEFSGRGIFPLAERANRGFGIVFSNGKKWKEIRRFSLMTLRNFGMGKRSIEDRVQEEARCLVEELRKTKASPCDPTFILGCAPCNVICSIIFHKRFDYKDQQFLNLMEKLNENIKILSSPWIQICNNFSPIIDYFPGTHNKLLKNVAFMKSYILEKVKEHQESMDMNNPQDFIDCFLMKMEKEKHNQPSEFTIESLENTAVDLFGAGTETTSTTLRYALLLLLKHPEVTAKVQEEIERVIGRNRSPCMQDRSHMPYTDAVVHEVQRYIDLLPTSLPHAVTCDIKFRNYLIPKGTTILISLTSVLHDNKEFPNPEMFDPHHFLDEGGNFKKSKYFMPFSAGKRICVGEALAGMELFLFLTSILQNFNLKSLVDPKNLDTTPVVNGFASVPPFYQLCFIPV

[7] = biological target: T2, Cytochrome P450 3A4 (Homo sapiens, UniProt P08684); assay: Drug metabolism in recombinant Saccharomyces cerevisiae AH22 cells expressing human CYP3A4 assessed as CYP3A4-mediated hydroxylation at methyl group of B-ring by measuring retention time of the metabolite at 39 uM incubated for 24 hrs by HPLC analysis; format: ADME; conditions: recombinant enzyme
T2 sequence (P08684 whole entry): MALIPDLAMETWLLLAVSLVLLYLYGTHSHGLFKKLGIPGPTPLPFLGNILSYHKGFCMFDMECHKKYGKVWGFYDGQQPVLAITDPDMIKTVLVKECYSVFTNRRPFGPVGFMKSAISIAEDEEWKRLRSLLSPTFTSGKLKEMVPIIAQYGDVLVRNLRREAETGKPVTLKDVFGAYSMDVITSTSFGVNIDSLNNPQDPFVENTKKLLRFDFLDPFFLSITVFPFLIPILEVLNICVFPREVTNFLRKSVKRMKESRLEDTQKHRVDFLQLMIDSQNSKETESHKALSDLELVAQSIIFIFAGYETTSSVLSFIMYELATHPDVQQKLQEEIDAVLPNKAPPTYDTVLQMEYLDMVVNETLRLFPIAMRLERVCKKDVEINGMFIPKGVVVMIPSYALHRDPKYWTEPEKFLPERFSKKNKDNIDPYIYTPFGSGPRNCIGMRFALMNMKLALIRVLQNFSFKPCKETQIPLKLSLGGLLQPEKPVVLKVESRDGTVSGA

[8] = biological target: T2, Cytochrome P450 3A4; assay: Drug metabolism in recombinant Saccharomyces cerevisiae AH22 cells expressing human CYP3A4 assessed as CYP3A4-mediated hydroxylation at methyl group of A-ring by measuring retention time of the metabolite at 39 uM incubated for 24 hrs by HPLC analysis; format: ADME; conditions: recombinant enzyme
[9] = biological target: T2, Cytochrome P450 3A4; assay: Drug metabolism in recombinant Saccharomyces cerevisiae AH22 cells expressing human CYP3A4 assessed as CYP3A4-mediated hydroxylation at t-butyl group by measuring retention time of the metabolite at 39 uM incubated for 24 hrs by HPLC analysis; format: ADME; conditions: recombinant enzyme

| Structure (SMILES) | Retention_time [1] [min] | Retention_time [2] [min] | Retention_time [3] [min] | Drug metabolism [4] | Drug metabolism [5] | Drug metabolism [6] | Retention_time [7] [min] | Retention_time [8] [min] | Retention_time [9] [min] |
| --- | --- | --- | --- | --- | --- | --- | --- | --- | --- |
| Cc1cc(C)cc(C(=O)N(NC(=O)c2ccc(C(C)C)cc2)C(C)(C)C)c1 | 12 | 13.9 | 17.7 | Metabolite_Notdetected | – | – | – | – | – |
| Cc1cc(C)cc(C(=O)N(NC(=O)c2ccccc2C)C(C)(C)C)c1 | – | – | – | Metabolite_Notdetected | – | – | – | – | – |
| Cc1cccc(C(=O)NN(C(=O)c2cc(C)cc(C)c2)C(C)(C)C)c1 | – | – | – | Metabolite_Notdetected | Metabolite_Detected | Metabolite_Detected | 16.1 | 17.4 | 16.1 |
